What was measured:
[1] = biological target: T1, NMDA (NR1/NR2A) receptors (Rattus norvegicus, UniProt P35439+Q00959); assay: NMDA receptor two-electrode voltage clamp in oocytes at saturated drug concentration; type: cell-based; conditions: for NMDA % Direct Effect: drug response without receptor agonist; for NMDA % Direct Effect / NMDA % Agonist Effect: percent of control agonist peak, mean ±SEM, 5-6 oocytes, saturated drug; for NMDA % Agonist Effect: drug with glutamate and glycine; for NMDA Drug Response: drug+agonist versus control agonist peak; for NMDA receptor modulation (in words): saturating aqueous concentration; for direct effect on NMDA receptors (in words): without glutamate and glycine agonist
T1 construct: expressed in transfected cells; host or cells: Xenopus laevis oocytes (RNA injection, 1:1)
From the text: (§1) GABAA (α1β2γ2s) or NMDA (NR1/NR2A) receptors were expressed in oocytes and studied using standard two-electrode voltage clamp techniques. Hydrocarbons from 14 different organic functional groups were studied at saturated concentrations, and compounds within each group differed only by the carbon number at the ω-position or within a saturated ring. An effect on GABAA or NMDA receptors was defined as a 10% or greater reversible current change from baseline that was statistically different from zero.
(§2) An ovary from tricaine-anesthetized Xenopus laevis frogs was surgically removed using a protocol approved by the Institutional Animal Care and Use Committee at the University of California, Davis. Following manual disruption of the ovarian lobule septae, the ovary was incubated in 0.2% Type I collagenase (Worthington Biochemical, Lakewood, N.J.) to defolliculate oocytes which were washed and stored in fresh and filtered modified Barth's solution composed of 88 mM NaCl, 1 mM KCl, 2.4 mM NaHCO3, 20 mM HEPES, 0.82 mM MgSO4, 0.33 mM Ca(NO3)2, 0.41 mM CaCl2, 5 mM sodium pyruvate, gentamycin, penicillin, streptomycin, and corrected to pH=7.4. All salts and antibiotics were A.C.S. grade (Fisher Scientific, Pittsburgh, Pa.).
(§3) Clones used were provided as a gift from Dr. R. A. Harris (University of Texas, Austin) and were sequenced and compared to references in the National Center for Biotechnology Information database to confirm the identity of each gene. GABAA receptors were expressed using clones for the human GABAA α1 and the rat GABAA β2 and γ2s subunits in pCIS-II vectors. […] In separate oocytes, glutamate receptors were expressed using rat NMDA NR1 clones in a pCDNA3 vector and rat NMDA NR2A clones in a Bluescript vector. RNA encoding each subunit was prepared using a commercial transcription kit (T7 mMessage mMachine, Ambion, Austin, Tex.) was mixed in a 1:1 ratio, and 1-10 ng of total RNA was injected into oocytes and studied 1-2 days later.
Briefly, baseline perfusion solutions were the same as for GABAA with the substitution of equimolar BaCl2 for calcium salts and the addition of 0.1 mM EGTA; this constituted barium frog Ringer's solution (BaFR). Agonist solutions for NMDA studies also contained 0.1 mM glutamate (E) and 0.01 mM glycine (G) to constitute a BaFREG solution.
The syringe pump and perfusion chamber apparatus as well as the clamp holding potential and baseline-agonist exposure protocols were identical to that described for the GABAA studies. The same test compounds, concentrations, and preparative methods were used in NMDA voltage clamp studies as in the GABAA voltage clamp studies (Table 2).
(§4) Modulating drug responses were calculated as the percent of the control (baseline) peak as follows: 100·ID/IB, where ID and IB were the peak currents measured during agonist+drug and agonist baseline perfusions, respectively. When present, direct receptor activation by a drug was similarly calculated as a percent of the agonist response. […] A lack of receptor response (cut-off) was defined as a<10% change from baseline current that was statistically indistinguishable from zero using a two-tailed Student t-test.

[2] = biological target: T2, GABAA (α1β2γ2s) receptors (UniProt P14867+P18508+P63138); assay: GABAA receptor two-electrode voltage clamp in oocytes at saturated drug concentration; type: cell-based, human α1, rat β2 and γ2s; conditions: for GABAA % Direct Effect: drug response without receptor agonist; for GABAA % Direct Effect / GABAA % Agonist Effect: percent of control agonist peak, mean ±SEM, 5-6 oocytes, saturated drug; for GABAA % Agonist Effect: drug with γ-aminobutyric acid; for GABAA Drug Response: drug+agonist versus control agonist peak
T2 construct: expressed in transfected cells; host or cells: Xenopus laevis oocytes (intranuclear plasmid injection, α1:β2:γ2 = 1:1:10)
From the text: as §1, §2, §3
Oocytes were studied in a 250 μL linear-flow perfusion chamber with solutions administered by syringe pump at 1.5 ml/min with gastight glass syringes and Teflon tubing. Oocyte GABAA currents were studied using standard two-electrode voltage clamping techniques at a holding potential of […] using a 250 μL channel linear-flow perfusion chamber with solutions administered by syringe pump at 1.5 mL/min.
After FR perfusion for 5 min, oocytes were exposed to 30 sec FR-GABA followed by another 5 min FR washout; this was repeated until stable GABAA-elicited peaks were obtained. Next, FR containing a saturated solution of the study drug (Table 2)—or for gaseous study compounds a vapor pressure equal to 90% of barometric pressure with balance oxygen—was used to perfuse the oocyte chamber for 2 min followed by perfusion with a FR-GABA solution containing the identical drug concentration for 30 sec.
as §4

T2 sequence (P14867 28-456): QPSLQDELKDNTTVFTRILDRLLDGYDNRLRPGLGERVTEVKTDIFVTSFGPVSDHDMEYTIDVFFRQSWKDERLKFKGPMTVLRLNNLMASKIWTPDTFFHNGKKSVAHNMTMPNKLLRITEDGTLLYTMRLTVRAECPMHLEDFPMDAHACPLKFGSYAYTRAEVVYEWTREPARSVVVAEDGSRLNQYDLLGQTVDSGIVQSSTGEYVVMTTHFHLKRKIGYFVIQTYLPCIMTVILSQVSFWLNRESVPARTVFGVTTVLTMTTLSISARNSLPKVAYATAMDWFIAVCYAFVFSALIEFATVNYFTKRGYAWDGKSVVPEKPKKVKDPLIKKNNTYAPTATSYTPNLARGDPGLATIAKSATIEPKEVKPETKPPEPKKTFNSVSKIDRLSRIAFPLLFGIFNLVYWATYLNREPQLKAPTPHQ
T2 sequence (P63138 25-474 limits assumed): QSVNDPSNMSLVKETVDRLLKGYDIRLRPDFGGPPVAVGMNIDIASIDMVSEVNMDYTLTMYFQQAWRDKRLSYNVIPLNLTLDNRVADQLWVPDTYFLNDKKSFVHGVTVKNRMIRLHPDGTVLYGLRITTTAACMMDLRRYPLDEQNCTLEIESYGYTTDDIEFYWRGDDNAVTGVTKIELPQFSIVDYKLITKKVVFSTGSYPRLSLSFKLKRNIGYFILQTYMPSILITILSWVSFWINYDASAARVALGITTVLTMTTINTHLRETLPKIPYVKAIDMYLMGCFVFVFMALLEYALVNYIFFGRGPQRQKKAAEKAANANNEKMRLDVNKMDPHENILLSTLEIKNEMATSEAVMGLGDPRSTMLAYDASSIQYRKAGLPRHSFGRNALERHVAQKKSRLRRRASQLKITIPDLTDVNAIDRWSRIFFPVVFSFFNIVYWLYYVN
T2 sequence (P18508 39-466): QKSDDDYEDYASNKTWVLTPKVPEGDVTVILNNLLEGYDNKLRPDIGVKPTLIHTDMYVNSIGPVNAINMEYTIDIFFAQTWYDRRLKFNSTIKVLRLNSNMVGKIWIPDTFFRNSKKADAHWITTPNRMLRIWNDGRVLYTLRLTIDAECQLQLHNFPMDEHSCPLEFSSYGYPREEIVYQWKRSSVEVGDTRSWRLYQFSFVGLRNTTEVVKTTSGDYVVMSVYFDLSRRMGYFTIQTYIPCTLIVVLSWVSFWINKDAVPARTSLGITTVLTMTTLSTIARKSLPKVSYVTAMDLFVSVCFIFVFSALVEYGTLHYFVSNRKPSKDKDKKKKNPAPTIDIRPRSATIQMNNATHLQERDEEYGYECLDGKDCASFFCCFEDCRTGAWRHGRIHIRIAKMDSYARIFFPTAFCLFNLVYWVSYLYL
T1 sequence (Q00959 23-1464, other chains not shown): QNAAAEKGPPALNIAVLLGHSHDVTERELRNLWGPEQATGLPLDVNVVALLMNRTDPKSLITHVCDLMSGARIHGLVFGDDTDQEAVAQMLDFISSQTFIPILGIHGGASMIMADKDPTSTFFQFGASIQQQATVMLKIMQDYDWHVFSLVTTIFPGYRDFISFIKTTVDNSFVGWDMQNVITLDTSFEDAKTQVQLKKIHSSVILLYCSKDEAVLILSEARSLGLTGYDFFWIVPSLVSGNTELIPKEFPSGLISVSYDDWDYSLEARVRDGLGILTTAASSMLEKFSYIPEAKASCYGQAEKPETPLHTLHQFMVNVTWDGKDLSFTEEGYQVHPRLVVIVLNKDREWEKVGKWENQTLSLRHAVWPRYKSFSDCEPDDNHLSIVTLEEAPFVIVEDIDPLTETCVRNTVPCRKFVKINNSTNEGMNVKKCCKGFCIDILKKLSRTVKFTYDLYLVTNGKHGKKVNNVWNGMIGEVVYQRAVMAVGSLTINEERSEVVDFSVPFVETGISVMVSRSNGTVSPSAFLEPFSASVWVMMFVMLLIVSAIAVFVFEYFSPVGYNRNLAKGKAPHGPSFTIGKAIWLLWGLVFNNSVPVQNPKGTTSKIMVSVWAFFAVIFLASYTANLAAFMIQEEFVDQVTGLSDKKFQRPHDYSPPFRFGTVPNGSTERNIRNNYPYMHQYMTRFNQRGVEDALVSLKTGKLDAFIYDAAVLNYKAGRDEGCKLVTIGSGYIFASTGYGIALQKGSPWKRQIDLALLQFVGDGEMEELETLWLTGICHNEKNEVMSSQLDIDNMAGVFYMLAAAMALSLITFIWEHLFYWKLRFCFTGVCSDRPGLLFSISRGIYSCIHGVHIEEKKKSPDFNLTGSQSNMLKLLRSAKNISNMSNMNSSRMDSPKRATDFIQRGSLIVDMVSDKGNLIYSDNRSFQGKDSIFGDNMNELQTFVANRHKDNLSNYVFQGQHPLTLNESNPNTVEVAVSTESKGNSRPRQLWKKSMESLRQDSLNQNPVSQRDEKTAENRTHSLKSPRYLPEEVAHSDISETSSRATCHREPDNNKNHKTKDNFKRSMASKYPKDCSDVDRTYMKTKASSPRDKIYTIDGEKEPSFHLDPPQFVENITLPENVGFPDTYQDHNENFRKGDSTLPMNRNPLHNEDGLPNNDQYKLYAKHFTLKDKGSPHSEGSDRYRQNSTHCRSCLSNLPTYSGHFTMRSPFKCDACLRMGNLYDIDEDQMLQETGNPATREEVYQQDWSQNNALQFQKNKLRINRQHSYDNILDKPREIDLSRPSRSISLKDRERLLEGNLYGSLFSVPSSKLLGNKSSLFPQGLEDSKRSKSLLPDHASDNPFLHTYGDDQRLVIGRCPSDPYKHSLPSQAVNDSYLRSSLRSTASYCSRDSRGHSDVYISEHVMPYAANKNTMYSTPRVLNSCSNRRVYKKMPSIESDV

Row | NMDA % Direct Effect [1] | NMDA % Agonist Effect [1] | GABAA % Direct Effect [2] | GABAA % Agonist Effect [2] | NMDA receptor modulation (in words) [1] | NMDA receptor current inhibition ([1]; hydrocarbons prior to the cut-off, saturated) | Compound | NMDA Drug Response [1] | GABAA Drug Response [2] | GABAA receptor modulation (in words) ([2]; saturating aqueous concentration) | direct effect on NMDA receptors (in words) [1]
1 | none | 101 ± 1% | none | 120 ± 3% |  |  | CCCCCCCCSCC [1-(ethylthio)-octane] | 0 (no response (0) for drug+agonist responses that differ by <10% from the control agonist peak) | + (potentiation (+) for drug+agonist responses greater than the control agonist peak) |  | 
2 | none | 70 ± 3% | none | 386 ± 20% |  |  | CCCCCCCCCCO [1-decanol] |  | + (potentiation (+) for drug+agonist responses greater than the control agonist peak) |  | 
3 | none | 76 ± 2% | none | 539 ± 35% |  |  | CCCCCF [1-fluoropentane] |  | + (potentiation (+) for drug+agonist responses greater than the control agonist peak) |  | 
4 | none | 68 ± 10% | none | 172 ± 8% |  |  | C#CCCCCC [1-heptyne] |  | + (potentiation (+) for drug+agonist responses greater than the control agonist peak) |  | 
5 | none | 102 ± 3% | 8 ± 2% | 290 ± 41% | did not |  | CCCCCCS [1-hexanethiol] | 0 (no response (0) for drug+agonist responses that differ by <10% from the control agonist peak) | + (potentiation (+) for drug+agonist responses greater than the control agonist peak) |  | 
6 | none | 96 ± 2% | none | 259 ± 11% |  |  | C#CCCCCCC [1-octyne] | 0 (no response (0) for drug+agonist responses that differ by <10% from the control agonist peak) | + (potentiation (+) for drug+agonist responses greater than the control agonist peak) |  | 
7 | none | 101 ± 2% | none | 181 ± 13% |  |  | CCCCCCCCCCCO [1-undecanol] | 0 (no response (0) for drug+agonist responses that differ by <10% from the control agonist peak) | + (potentiation (+) for drug+agonist responses greater than the control agonist peak) |  | 

The remaining lines, values behind:

Row | Compound | NMDA % Direct Effect [1] | NMDA % Agonist Effect [1] | GABAA % Direct Effect [2] | GABAA % Agonist Effect [2] | NMDA receptor modulation (in words) [1] | NMDA receptor current inhibition ([1]; hydrocarbons prior to the cut-off, saturated) | NMDA Drug Response [1] | GABAA Drug Response [2] | GABAA receptor modulation (in words) ([2]; saturating aqueous concentration) | direct effect on NMDA receptors (in words) [1]
8 | CCc1cccc(CC)c1 [1,3-diethylbenzene] | none | 101 ± 2% | none | 305 ± 24% |  |  | 0 (no response (0) for drug+agonist responses that differ by <10% from the control agonist peak) | + (potentiation (+) for drug+agonist responses greater than the control agonist peak) |  | 
9 | Cc1cccc(C)c1 [1,3-dimethylbenzene] | none | 58 ± 3% | none | 366 ± 21% |  |  |  | + (potentiation (+) for drug+agonist responses greater than the control agonist peak) |  | 
10 | CCCCCCSCC [1-(ethylthio)-hexane] | none | 87 ± 1% | none | 350 ± 57% |  |  |  | + (potentiation (+) for drug+agonist responses greater than the control agonist peak) |  | 
11 | OCC(F)(F)C(F)(F)C(F)(F)C(F)(C(F)(F)F)C(F)(F)F [1-Hexanol, 2,2,3,3,4,4,5,6,6,6-decafluoro-5-(trifluoromethyl)-] |  |  |  |  | weak NMDA receptor antagonist |  |  |  | GABA-A receptor agonist | 
12 | CCCCCCCCCCCCO [1-dodecanol] | none | 98 ± 1% | none | 177 ± 4% |  |  | 0 (no response (0) for drug+agonist responses that differ by <10% from the control agonist peak) | + (potentiation (+) for drug+agonist responses greater than the control agonist peak) |  | 
13 | CCCCCCCCCCCCCCCCCCCCN [1-eicosanamine] | none | 108 ± 1% | none | 166 ± 7% |  |  | 0 (no response (0) for drug+agonist responses that differ by <10% from the control agonist peak) | + (potentiation (+) for drug+agonist responses greater than the control agonist peak) |  | 
14 | CCCCCCCCF [1-fluoroctane] | none | 98 ± 1% | none | 182 ± 18% |  |  | 0 (no response (0) for drug+agonist responses that differ by <10% from the control agonist peak) | + (potentiation (+) for drug+agonist responses greater than the control agonist peak) |  | 
15 | CCCCCCF [1-fluorohexane] | none | 101 ± 1% | 11 ± 4% | 207 ± 13% |  |  | 0 (no response (0) for drug+agonist responses that differ by <10% from the control agonist peak) | + (potentiation (+) for drug+agonist responses greater than the control agonist peak) |  | 
16 | C=CCCCC [1-hexene] | none | 97 ± 0% | none | 132 ± 2% |  |  | 0 (no response (0) for drug+agonist responses that differ by <10% from the control agonist peak) | + (potentiation (+) for drug+agonist responses greater than the control agonist peak) |  | 
17 | C#CCCCC [1-hexyne] | none | 41 ± 6% | 5 ± 2% | 418 ± 21% |  |  |  | + (potentiation (+) for drug+agonist responses greater than the control agonist peak) |  | 
18 | CCCCCCCCCCCCCCCCCCN [1-octadecanamine] | none | 73 ± 4% | none | 146 ± 5% |  |  |  | + (potentiation (+) for drug+agonist responses greater than the control agonist peak) |  | 
19 | CCCCCS [1-pentanethiol] | none | 85 ± 4% | 22 ± 8% | 466 ± 57% | inhibited NMDA receptors | 15% |  | + (potentiation (+) for drug+agonist responses greater than the control agonist peak) |  | 
20 | C=CCCC [1-pentene] | none | 69 ± 1% | 2 ± 3% | 453 ± 38% |  |  |  | + (potentiation (+) for drug+agonist responses greater than the control agonist peak) |  | 
21 | CN1CCOCC1 [4-methylmorpholine] |  |  |  |  |  |  |  |  |  | direct activation of NMDA receptors
22 | N-methylpiperadine |  |  |  |  |  |  |  |  |  | direct activation of NMDA receptors
